RP-LC retention time data for 32 compounds are collected here from the METLIN SMRT retention time set (Domingo-Almenara et al. 2019).

This series is described as follows: gradient 5% acetonitrile 3 min, to 50% in 2 min, to 85% in 15 min, held 3 min, 100 µL/min. The following applies: column: Zorbax Extend-C18 2.1 x 50 mm; eluents: water / acetonitrile, 0.1% formic acid. The method in brief:
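The mobile phases were water and acetonitrile, each with 0.1% formic acid, pumped at 100 μL/min through a Zorbax Extend-C18 column (2.1 × 50 mm, 1.8 μm). Pure standards were injected as mixtures of ~100 molecules and detected by a quadrupole time-of-flight mass spectrometer in positive and negative ionization mode. Retention time came from computationally picked adduct peaks, each inspected by hand.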
In turn, `CCN1C(=O)C2(CCN(S(=O)(=O)c3ccc(F)c(C)c3)CC2)c2ccccc21` displayed an RP-LC retention time of 1090 s. With `CCN1CCC(N(Cc2cccs2)C(=O)Nc2ccc(OC)c(OC)c2)CC1`, the RP-LC retention time amounted to 604 s.

On to `CCOCCCNC(=O)CN1c2ccc(F)cc2-c2ccccc2S1(=O)=O`, for which the RP-LC retention time came out at 820 s.

In the case of `CC(C)S(=O)(=O)c1cc2c(cc1NC(=O)c1ccc(F)cc1)n(C)c(=O)n2C`, the RP-LC retention time is 788 s. `CCN1c2cc(C)ccc2-n2cccc2C12CCN(C(=O)NCC(=O)OC)CC2`: the RP-LC retention time worked out at 895 s.

`COc1cc([C@@H]2c3cc4c(cc3[C@H](O)[C@@H](CO)[C@@H]2C(=O)NC(C)C)OCO4)cc(OC)c1OC` registered an RP-LC retention time of 660 s. In turn, `COc1ccc2c(c1)C1(CCN(C(=O)Cc3ccccc3C)C1)C(=O)N2C` (configuration not stated) returned an RP-LC retention time of 826 s.

In turn, `Cc1ccccc1-c1noc(Cc2nnc(-c3cccc(Br)c3)o2)n1` had an RP-LC retention time of 853 s. In turn, `CC(C)c1nc2ccc(C(=O)NCCN(C)C3CCCCC3)cc2o1` came in with an RP-LC retention time of 656 s. For `COc1ccc(OCC(=O)N2CCN(c3nccn3-c3ccccc3F)CC2)cc1` the value was 573 s; for `COCCOC(=O)c1c(C)oc2ccc(OC(=O)N(C)C)cc12`, 830 s; for `O=C(Nc1ccccc1)N1CCC(n2cnc3cc(F)ccc3c2=O)CC1`, 742 s. For `Cc1ccc(-c2ccc3nn(Cc4nc(-c5ccc(F)c(Br)c5)no4)c(=O)n3n2)cc1` the value was 1090 s; for `Cc1ccc2nc(-c3cc(Br)ccc3F)c(Nc3ccc4c(c3)OCO4)n2c1`, 762 s. For `Cc1c(NC(=O)Nc2c(Cl)cccc2Cl)c(=O)n(-c2ccccc2)n1C` the value was 751 s.

Regarding `Cc1nc2cc3c(cc2n1CC(=O)Nc1ccc(F)c(Cl)c1)OCCO3`, the RP-LC retention time is 690 s. With `O=C(c1ccc(-n2cccn2)nc1)N1CCCCC1` the figure was 732 s; with `Cc1ccccc1Cn1c(CN2CCC(C(=O)NCCc3ccco3)CC2)cc2ccccc21`, 805 s; with `Cc1noc(-c2cc(=O)n(CC(=O)Nc3cc(F)cc(F)c3)c3ccccc23)n1`, 904 s.

The compound `O=C(NCCCN1CCN(Cc2ccccc2)CC1)c1cn2c3c(ccc(Cl)c3c1=O)OCC2` returned an RP-LC retention time of 634 s. With `COC(=O)c1ccc2c(=O)n(-c3ccc(Cl)cc3)c(N3CCSC3)nc2c1` the figure was 1110 s; with `Cc1ccc(S(=O)(=O)N2CCc3c(c(-c4nnc(-c5ccc(F)cc5)o4)nn3C)C2)cc1Cl`, 1040 s. With `COc1ccccc1C1(CNS(=O)(=O)c2cccc(Cl)c2C)CCOCC1` the figure was 969 s. With `Cc1csc(-c2cc(S(=O)(=O)N3CCN(C(C)C)CC3)cn2CC(=O)N2CCCCC2)n1` the figure was 688 s; with `CC(C)NC(=O)C1CCCN(c2nc3ncn(CC(=O)Nc4ccc(C(C)C)cc4)c(=O)c3s2)C1` (configuration not stated), 785 s. Regarding `COCCN1C(=O)c2ccccc2C(C(=O)NCCCN2CCCCC2)C1c1cccs1` (configuration not stated), the RP-LC retention time was determined as 612 s.

`Fc1cccc(-c2nc(-c3cn(-c4cccc(F)c4)nn3)no2)c1` came in with an RP-LC retention time of 1090 s.

In turn, `CCCNC(=O)N1CC(Oc2cccc(-c3nc(C)no3)c2)C1` showed an RP-LC retention time of 730 s. For `Cc1ccc(-c2nnc(-c3ccccc3Cl)o2)cc1S(=O)(=O)N1CCCCC1` the value was 1200 s. With `COc1ccc(NC(=O)CSc2ccc(N3CCCC(C(=O)NC4CC4)C3)nn2)cc1` (configuration not stated) the figure was 617 s; with `Cc1ccc(C)c(N2CCN(c3ccnc(SCC(=O)NCCCc4ccccc4)n3)CC2)c1`, 1060 s; with `Cc1ccc(-c2cn3cccnc3n2)cc1NC(=O)c1ccc(Br)cc1`, 730 s.
